{"source": "patent US12410355B2", "about": "“Compositions and methods for carbon dioxide solidification” (CHEVRON U.S.A. INC., priority 2022, dated 2025)", "key": {"[1]": {"test": "Solubility limit (Ksp) of GBIG in NaCl brine", "type": "physicochemical", "conditions": "25° C., 20 minutes of sonication", "method": "Solubility limit Ksp at 25° C. and 20 minutes of sonication. Solubility limit strongly depends on salinity: nonlinear dependence."}, "[2]": {"test": "GBIG·(HCO3)2(H2O)2(s) precipitation upon contacting with CO2(g)", "type": "physicochemical", "conditions": "CO2 gas 0.5 psig, 30 minutes", "method": "GBIG·(HCO3)2(H2O)2(s) Precipitation Upon Contacting with CO2(g)\nPour approximately 5 ml of the synthesized chemical solution into the polycarbonate reservoir. Open the CO2 gas cylinder valve and take note of the pressure. Open the delivery valve of the regulator. Increase the delivery pressure to 0.5 psig by turning the regulator knob. Open the 3-way valve connected to the bottom of the polycarbonate reservoir to initiate CO2 gas flow into the reservoir. Watch for precipitation in the liquid through the transparent polycarbonate reservoir wall for 30 minutes. For temperature dependence testing: Samples were placed in ovens at temperature of interest for 30 minutes, then used in the procedure detailed above.\nResults for the precipitation test for varying salinity and glyoxal-bis(iminoguanidine) (GBIG) concentration are shown in Tables 2-4 and FIGS. 3A-3C. Table 2 and FIG. 3A show results for 1 wt % NaCl and 0.397 wt % GBIG. Table 3 and FIG. 3B show results for 0.1 wt % NaCl and 0.243 wt % GBIG. Table 4 and FIG. 3C show results for 20 wt % NaCl and 0.064 wt % GBIG."}}}
{"smiles": "N=C(N)NN=CC=NNC(=N)N", "note": "[GBIG, glyoxal-bis(iminoguanidine)]", "values": [{"measurement": "GBIG Ksp", "setting": "[1]; 0.1 wt % NaCl", "value": 0.0143}, {"measurement": "Solubility limit, GBIG (wt %)", "setting": "[1]; 0.1 wt % NaCl", "value": 0.243, "unit": "wt %"}, {"measurement": "GBIG Ksp", "setting": "[1]; 1 wt % NaCl", "value": 0.0234}, {"measurement": "Solubility limit, GBIG (wt %)", "setting": "[1]; 1 wt % NaCl", "value": 0.397, "unit": "wt %"}, {"measurement": "GBIG Ksp", "setting": "[1]; 20 wt % NaCl", "value": 0.0038}, {"measurement": "Solubility limit, GBIG (wt %)", "setting": "[1]; 20 wt % NaCl", "value": 0.064, "unit": "wt %"}, {"measurement": "Precipitation?", "setting": "[2]; 0.1 wt % NaCl and 0.243 wt % GBIG, 25° C.", "value": "Yes"}, {"measurement": "Precipitation?", "setting": "[2]; 0.1 wt % NaCl and 0.243 wt % GBIG, 65° C.", "value": "Yes"}, {"measurement": "Precipitation?", "setting": "[2]; 0.1 wt % NaCl and 0.243 wt % GBIG, 80° C.", "value": "Yes"}, {"measurement": "Precipitation?", "setting": "[2]; 0.1 wt % NaCl and 0.243 wt % GBIG, 100° C.", "value": "Yes"}, {"measurement": "Precipitation?", "setting": "[2]; 0.1 wt % NaCl and 0.243 wt % GBIG, 115° C.", "value": "Yes"}, {"measurement": "Precipitation?", "setting": "[2]; 1 wt % NaCl and 0.397 wt % GBIG, 25° C.", "value": "Yes"}, {"measurement": "Precipitation?", "setting": "[2]; 1 wt % NaCl and 0.397 wt % GBIG, 65° C.", "value": "Yes"}, {"measurement": "Precipitation?", "setting": "[2]; 1 wt % NaCl and 0.397 wt % GBIG, 80° C.", "value": "Yes"}, {"measurement": "Precipitation?", "setting": "[2]; 1 wt % NaCl and 0.397 wt % GBIG, 100° C.", "value": "Yes"}, {"measurement": "Precipitation?", "setting": "[2]; 1 wt % NaCl and 0.397 wt % GBIG, 115° C.", "value": "Yes"}, {"measurement": "Precipitation?", "setting": "[2]; 20 wt % NaCl and 0.064 wt % GBIG, 25° C.", "value": "Yes"}, {"measurement": "Precipitation?", "setting": "[2]; 20 wt % NaCl and 0.064 wt % GBIG, 65° C.", "value": "Yes"}, {"measurement": "Precipitation?", "setting": "[2]; 20 wt % NaCl and 0.064 wt % GBIG, 80° C.", "value": "Yes"}, {"measurement": "Precipitation?", "setting": "[2]; 20 wt % NaCl and 0.064 wt % GBIG, 100° C.", "value": "Yes"}, {"measurement": "Precipitation?", "setting": "[2]; 20 wt % NaCl and 0.064 wt % GBIG, 115° C.", "value": "Yes"}]}
